One series has as its system HeLa nuclear HDACs. In words: Inhibition of HeLa nuclear HDACs (HeLa nuclear extract, mainly HDACs1-3). Type of series: biochemical. To be noted: read-out: HeLa HDAC IC50.
Series [1] has as its system MV4-11 cells. In words: Survival/apoptosis of MV4-11 AML cells by Annexin V labeling. Type of series: cell-based, human. The following applies: Homo sapiens, read-out: MV4-11 Apoptosis IC50.
In series [2] the test system is MV4-11 cells. In words: Proliferation of MV4-11 cells, luminescent cell viability assay. In kind it is cell-based, human. To be noted: Homo sapiens, read-out: MV4-11 Proliferation IC50.
The test system of the next series is OCI-AML3 cells. In words: Survival/apoptosis of OCI-AML3 AML cells by Annexin V labeling. The following applies: Homo sapiens, OCI-AML-3, 48 h, read-out: OCI-AML3 Apoptosis IC50. In kind it is cell-based, human.
The target in a further series is HDAC8 (Homo sapiens (Human), UniProt Q9BY41). Nature of the series: Inhibition of HDAC8. Type of series: biochemical. To be noted: for IC50 PCI34051/IC50 compound: inhibition of HDAC8, relative potency (Tables 1-3); for A (relative potency to PCI34051): inhibition of HDAC8, footnote: (Tables 11-13); for IC50: mean SD of three determinations; for HDAC8 inhibitory activity compared with PCI34051: result in words.

For series [3], the system named is MOLM13 cells. In words: Proliferation of MOLM13 cells, luminescent cell viability assay. To be noted: Homo sapiens, read-out: MOLM13 Proliferation IC50. In kind it is cell-based, human.
The subject of series [4] is MOLM13 cells. In words: Survival/apoptosis of MOLM13 AML cells by Annexin V labeling. In kind it is cell-based, human. To be noted: Homo sapiens, read-out: MOLM13 Apoptosis IC50.
For the next series, the system named is H1299 cells. In words: Cytotoxicity / anti-proliferative activity in H1299 lung cancer cells. The following applies: read-out: Cytotoxicity IC50 H1299; mean SD of three determinations.
The next series deals with CL1-5 cells. In words: Cytotoxicity / anti-proliferative activity in CL1-5 lung cancer cells. The following applies: read-out: Cytotoxicity IC50 Cl1-5; mean SD of three determinations.
A further series has as its system Cl1-1 cells. In words: Cytotoxicity / anti-proliferative activity in CL1-1 lung cancer cells. To be noted: read-out: Cytotoxicity IC50 Cl1-1; mean SD of three determinations.
For another series, the target named is HDAC10 (Homo sapiens (Human), UniProt Q969S8). Nature of the series: Inhibition of purified HDAC10. To be noted: read-out: HDAC 10 IC50; class II.
The target in a further series is HDAC2 (Homo sapiens (Human), UniProt Q92769). In words: Inhibition of purified HDAC2. The following applies: read-out: HDAC 2 IC50; class I.
The next series has as its target HDAC1 (Homo sapiens (Human), UniProt Q13547). Nature of the series: Inhibition of purified HDAC1. Type of series: biochemical. To be noted: class I; read-out: HDAC 1 IC50.
Another series deals with HDAC3 (Homo sapiens (Human), UniProt O15379). Nature of the series: Inhibition of purified HDAC3. To be noted: read-out: HDAC 3 IC50; class I.
Another series has as its target HDAC11 (Homo sapiens (Human), UniProt Q96DB2). In words: Inhibition of purified HDAC11. To be noted: read-out: HDAC 11 IC50; class IV.
For another series, the target named is HDAC4 (Homo sapiens (Human), UniProt P56524). In words: Inhibition of purified HDAC4. The following applies: read-out: HDAC 4 IC50; class II.
Another series deals with HDAC6 (Homo sapiens (Human), UniProt Q9UBN7). In words: Inhibition of purified HDAC6. The following applies: read-out: HDAC 6 IC50; class II.
For series [5], the system named is p53 target genes in 32D-CM cells. In words: qRT-PCR of p53 target genes in 32D-CM cells. Type of series: cell-based. The following applies: 10 μM, 16 h. On the technique in general: Real-time PCR tracks product formation cycle by cycle.
For series [6], the system named is Ac-p53 (K379) in 32D-CM cells. In words: Western blot of Ac-p53 in CBFβ-SMMHC (CM)-expressing 32D cells. In kind it is cell-based. The source says:
Cells were lysed in RIPA buffer containing protease inhibitor cocktail (Roche) and MG132. Antibodies used for IP were conjugated with protein A/G beads using the antibody cross-linking kit (Pierce Biotechnology, Rockford, Ill.) following manufacturer's protocol. For Western blot, proteins were resolved in 10% SDS-PAGE. The antibodies used induced anti-FLAG (Sigma), anti-HDAC8, anti-CBFβ (Santa Cruz), anti-p53 (DO-1), anti-Ac-p53 (K379) (Cell Signaling), anti-p53 (Cell signaling) and anti-β-actin (Sigma). Horseradish peroxidase-conjugated anti-rabbit or anti-mouse secondary antibodies (Jackson ImmunoResearch, West Grove Pa.) were used, followed by detection using the SuperFemto kit (Pierce Biotechnology, Rockford, Ill.).
Class 1 HDACs, including HDAC1, HDAC2, and HDAC3, reportedly could inhibit p53 activity by deacetylating p53 [41-43]. […] To test this, we used lentivirus (pLKO. 1) mediated expression of 2 independent small-hairpin (sh)-RNA sequences against Hdac8 to specifically knock-down Hdac8 in 32D-CM cells. Cells were exposed to IR (3Gy) and analyzed for levels of p53 acetylation 6 h after.

The structures appear in SMILES notation.

Sequence of HDAC8 (Q9BY41 whole entry): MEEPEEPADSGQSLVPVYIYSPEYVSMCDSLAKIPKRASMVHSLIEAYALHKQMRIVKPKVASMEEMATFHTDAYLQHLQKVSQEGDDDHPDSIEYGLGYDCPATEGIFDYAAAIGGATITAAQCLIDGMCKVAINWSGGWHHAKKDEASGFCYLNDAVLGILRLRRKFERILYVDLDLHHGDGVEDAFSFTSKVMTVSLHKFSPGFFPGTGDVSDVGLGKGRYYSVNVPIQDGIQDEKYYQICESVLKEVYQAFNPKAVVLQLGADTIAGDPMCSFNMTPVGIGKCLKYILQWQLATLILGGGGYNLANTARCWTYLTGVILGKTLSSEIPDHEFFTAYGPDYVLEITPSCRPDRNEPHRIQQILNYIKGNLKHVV
Sequence of HDAC2 (Q92769 whole entry, species assumed): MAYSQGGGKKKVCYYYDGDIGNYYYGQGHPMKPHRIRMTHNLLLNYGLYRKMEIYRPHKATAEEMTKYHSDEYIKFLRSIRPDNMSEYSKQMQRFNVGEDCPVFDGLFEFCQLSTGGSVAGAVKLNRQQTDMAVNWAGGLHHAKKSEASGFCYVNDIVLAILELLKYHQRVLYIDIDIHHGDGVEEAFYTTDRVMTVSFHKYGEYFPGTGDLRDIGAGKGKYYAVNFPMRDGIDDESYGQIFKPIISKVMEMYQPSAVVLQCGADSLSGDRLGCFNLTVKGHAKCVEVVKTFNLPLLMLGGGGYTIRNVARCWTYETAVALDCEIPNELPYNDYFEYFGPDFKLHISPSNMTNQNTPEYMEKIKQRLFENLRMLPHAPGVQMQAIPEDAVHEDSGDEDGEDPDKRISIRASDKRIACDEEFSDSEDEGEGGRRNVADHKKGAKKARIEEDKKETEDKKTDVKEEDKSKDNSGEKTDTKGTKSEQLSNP
Sequence of HDAC3 (O15379 whole entry, looked up, species assumed): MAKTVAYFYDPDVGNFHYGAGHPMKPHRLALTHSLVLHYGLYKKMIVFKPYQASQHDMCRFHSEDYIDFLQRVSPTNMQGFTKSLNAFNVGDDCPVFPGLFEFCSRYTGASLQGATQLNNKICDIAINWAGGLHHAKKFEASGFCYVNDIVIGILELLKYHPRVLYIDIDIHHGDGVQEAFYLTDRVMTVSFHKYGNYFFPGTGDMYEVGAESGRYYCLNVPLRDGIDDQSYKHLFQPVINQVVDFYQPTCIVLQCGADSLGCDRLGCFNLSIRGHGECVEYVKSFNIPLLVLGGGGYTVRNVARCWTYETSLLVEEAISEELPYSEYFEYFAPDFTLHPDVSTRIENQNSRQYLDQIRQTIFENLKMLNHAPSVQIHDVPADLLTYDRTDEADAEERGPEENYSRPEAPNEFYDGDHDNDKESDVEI
Sequence of HDAC3 (Q9Y618 whole entry partner, looked up, species assumed): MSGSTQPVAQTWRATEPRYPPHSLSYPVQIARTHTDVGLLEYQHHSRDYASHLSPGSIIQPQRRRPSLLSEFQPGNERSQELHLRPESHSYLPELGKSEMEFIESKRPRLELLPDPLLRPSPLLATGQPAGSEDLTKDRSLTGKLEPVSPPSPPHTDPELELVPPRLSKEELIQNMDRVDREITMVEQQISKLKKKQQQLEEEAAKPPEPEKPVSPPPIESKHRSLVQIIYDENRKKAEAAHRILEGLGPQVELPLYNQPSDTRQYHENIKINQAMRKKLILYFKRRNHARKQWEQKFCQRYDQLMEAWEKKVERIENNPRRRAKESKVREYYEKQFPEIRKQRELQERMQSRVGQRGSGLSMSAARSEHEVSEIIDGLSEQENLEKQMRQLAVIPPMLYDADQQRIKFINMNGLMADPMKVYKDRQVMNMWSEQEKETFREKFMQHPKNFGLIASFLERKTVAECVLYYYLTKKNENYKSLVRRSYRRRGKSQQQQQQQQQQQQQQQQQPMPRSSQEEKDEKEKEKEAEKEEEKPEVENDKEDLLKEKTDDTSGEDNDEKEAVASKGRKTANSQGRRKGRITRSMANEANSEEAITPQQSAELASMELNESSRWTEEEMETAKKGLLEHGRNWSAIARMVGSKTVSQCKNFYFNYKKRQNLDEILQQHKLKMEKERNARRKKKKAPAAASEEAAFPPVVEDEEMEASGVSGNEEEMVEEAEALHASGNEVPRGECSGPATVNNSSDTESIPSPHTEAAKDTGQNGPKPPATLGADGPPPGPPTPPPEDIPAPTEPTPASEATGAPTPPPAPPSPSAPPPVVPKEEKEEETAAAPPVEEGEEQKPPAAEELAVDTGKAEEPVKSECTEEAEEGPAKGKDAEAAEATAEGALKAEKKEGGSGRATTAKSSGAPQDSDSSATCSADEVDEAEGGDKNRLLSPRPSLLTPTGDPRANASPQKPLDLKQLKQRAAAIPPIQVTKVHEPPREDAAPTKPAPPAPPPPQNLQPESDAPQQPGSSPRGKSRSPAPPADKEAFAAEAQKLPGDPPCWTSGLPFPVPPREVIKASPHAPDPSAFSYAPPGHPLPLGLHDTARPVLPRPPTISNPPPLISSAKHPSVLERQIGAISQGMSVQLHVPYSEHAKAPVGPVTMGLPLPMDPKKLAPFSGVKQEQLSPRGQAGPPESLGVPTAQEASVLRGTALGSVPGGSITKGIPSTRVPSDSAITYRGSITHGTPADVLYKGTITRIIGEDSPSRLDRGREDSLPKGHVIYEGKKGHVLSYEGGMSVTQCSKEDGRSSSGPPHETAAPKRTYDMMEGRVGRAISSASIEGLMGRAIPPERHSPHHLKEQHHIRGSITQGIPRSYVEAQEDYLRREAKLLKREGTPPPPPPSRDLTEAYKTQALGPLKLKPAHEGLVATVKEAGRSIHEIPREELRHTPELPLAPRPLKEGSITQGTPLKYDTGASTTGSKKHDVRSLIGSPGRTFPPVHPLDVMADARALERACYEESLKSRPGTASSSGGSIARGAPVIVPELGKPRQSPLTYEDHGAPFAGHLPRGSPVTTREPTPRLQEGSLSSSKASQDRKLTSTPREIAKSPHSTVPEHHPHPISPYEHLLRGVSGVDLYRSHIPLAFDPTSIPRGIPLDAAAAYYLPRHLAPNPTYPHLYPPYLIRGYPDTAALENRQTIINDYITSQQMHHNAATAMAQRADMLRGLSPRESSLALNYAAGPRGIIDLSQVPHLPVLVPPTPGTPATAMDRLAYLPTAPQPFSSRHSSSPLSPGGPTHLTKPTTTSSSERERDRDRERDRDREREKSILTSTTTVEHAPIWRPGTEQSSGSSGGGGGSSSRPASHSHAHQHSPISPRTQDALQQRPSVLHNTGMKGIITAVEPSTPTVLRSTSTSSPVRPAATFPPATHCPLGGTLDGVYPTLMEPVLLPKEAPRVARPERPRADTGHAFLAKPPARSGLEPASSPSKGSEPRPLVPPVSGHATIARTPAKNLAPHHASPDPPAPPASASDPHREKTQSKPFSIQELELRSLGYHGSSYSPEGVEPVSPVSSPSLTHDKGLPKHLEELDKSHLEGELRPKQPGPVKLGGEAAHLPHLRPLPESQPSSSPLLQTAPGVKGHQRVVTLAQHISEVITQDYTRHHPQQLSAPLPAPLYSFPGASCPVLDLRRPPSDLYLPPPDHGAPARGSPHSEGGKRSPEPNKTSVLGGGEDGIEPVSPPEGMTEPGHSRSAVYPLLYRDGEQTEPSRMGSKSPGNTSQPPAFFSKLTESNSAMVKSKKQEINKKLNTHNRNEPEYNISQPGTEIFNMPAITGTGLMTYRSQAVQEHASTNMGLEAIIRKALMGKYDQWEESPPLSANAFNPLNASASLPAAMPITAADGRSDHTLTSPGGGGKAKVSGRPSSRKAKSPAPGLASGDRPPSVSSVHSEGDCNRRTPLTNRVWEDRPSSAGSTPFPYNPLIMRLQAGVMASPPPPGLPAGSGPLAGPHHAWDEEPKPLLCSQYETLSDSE
Sequence of HDAC10 (Q969S8 whole entry, species assumed): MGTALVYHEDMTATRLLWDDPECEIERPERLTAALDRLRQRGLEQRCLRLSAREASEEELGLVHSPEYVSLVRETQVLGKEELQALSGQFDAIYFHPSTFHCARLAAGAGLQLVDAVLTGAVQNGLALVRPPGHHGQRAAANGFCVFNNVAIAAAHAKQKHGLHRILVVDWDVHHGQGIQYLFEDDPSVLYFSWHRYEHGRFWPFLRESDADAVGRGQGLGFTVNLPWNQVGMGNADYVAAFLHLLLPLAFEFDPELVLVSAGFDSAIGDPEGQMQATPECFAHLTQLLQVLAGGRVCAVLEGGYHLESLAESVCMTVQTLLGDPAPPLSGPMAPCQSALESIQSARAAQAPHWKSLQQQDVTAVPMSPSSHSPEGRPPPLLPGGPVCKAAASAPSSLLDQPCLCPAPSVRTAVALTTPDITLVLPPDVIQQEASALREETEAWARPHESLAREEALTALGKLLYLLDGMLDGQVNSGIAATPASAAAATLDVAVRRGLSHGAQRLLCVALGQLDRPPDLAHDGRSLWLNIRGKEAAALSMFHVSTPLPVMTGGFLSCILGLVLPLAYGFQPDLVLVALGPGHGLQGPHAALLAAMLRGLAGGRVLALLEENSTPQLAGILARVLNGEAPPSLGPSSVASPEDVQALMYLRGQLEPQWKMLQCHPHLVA
Sequence of HDAC1 (Q13547 whole entry, species assumed): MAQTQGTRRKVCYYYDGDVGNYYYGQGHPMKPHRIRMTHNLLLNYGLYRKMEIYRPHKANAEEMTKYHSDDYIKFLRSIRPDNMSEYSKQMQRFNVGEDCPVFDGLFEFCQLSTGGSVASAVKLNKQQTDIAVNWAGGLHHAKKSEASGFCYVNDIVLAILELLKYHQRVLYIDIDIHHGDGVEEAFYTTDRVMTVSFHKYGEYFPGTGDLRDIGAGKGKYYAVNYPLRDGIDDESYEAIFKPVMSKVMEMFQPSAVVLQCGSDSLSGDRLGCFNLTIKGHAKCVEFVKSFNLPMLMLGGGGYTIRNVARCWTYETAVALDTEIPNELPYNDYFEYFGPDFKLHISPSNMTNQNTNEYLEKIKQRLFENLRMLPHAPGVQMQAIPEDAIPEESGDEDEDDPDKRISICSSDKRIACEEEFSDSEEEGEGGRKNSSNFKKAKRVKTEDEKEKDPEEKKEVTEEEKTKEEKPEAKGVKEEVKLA

In the case of `COc1ccc(/C=C/C(=O)NO)c(-c2ccc3c(c2)OCO3)c1` [Compound 5e], the IC50 in the series with HeLa nuclear HDACs came to 8.55 ± 0.00012 µM; in the series with MV4-11 cells [1] (MV4-11, 48 h), 11.9 µM; in the series with MV4-11 cells [2] (MV4-11, 48 h) it was 7.49 µM; in the series with OCI-AML3 cells it was 12.5 µM; with MOLM13 cells [3] (MOLM-13, 48 h), 3.36 µM; with MOLM13 cells [4] (MOLM-13, 48 h), 11.7 µM. Also, on HDAC8, the “IC50 PCI34051/IC50 compound” value amounted to 1.86. The “A (relative potency to PCI34051)” value at HDAC8 is listed as 1.86.

As to `COc1ccc(/C=C/C(=O)NO)c(-c2ccc(C(=O)c3ccccc3)cc2)c1` [Compound 22f, (E)-N-Hydroxy-4-methoxy-2-(4-benzoylphenyl)cinnamide], the IC50 in the series with H1299 cells is 0.0084 ± 0.0002 µM; in the series with HeLa nuclear HDACs, over 10 µM; in the series on CL1-5 cells it was over 0.01 µM; in the series on Cl1-1 cells it was over 0.01 µM; on HDAC8, 0.0418 ± 0.0033 µM. Further, on HDAC8, the “HDAC8 inhibitory activity compared with PCI34051” value is reported as “superior to PCI34051”.

For the compound `COc1ccc(/C=C/C(=O)NO)c(-c2cccc3c2oc2ccccc23)c1` [Compound 22g, (E)-N-Hydroxy-4-methoxy-2-(dibenzofuran-4-yl)cinnamide], the IC50 is 0.0066 ± 0.0007 µM in the series on H1299 cells; over 10 µM in the series on HeLa nuclear HDACs; 0.0087 ± 0.0001 µM with CL1-5 cells; 0.0085 ± 0.0012 µM in the series with Cl1-1 cells; 0.0477 ± 0.0007 µM on HDAC8. Besides, on HDAC8, the “HDAC8 inhibitory activity compared with PCI34051” value is “superior to PCI34051”.

Turning to `COc1ccc(/C=C/C(=O)NO)c(-c2ccc(Br)cc2)c1` [Compound 22b, (E)-N-Hydroxy-4-methoxy-2-(4-bromophenyl)cinnamide], the IC50 in the series with H1299 cells is over 0.01 µM; at HDAC10, over 0.02 µM; on HDAC2 it was over 0.02 µM; in the series with HeLa nuclear HDACs, over 10 µM; with CL1-5 cells, over 0.01 µM; at HDAC1, 0.0045 ± 0.0001 µM. Moreover, the IC50 was 0.0048 ± 0.0005 µM on HDAC3; over 0.02 µM at HDAC11; over 0.01 µM in the series on Cl1-1 cells; over 0.02 µM on HDAC4; over 0.02 µM on HDAC6; 0.0057 ± 0.0001 µM at HDAC8. In addition, the “fold more potent than 22a (HDAC8)” value at HDAC8 was 13 fold. Besides, at HDAC8, the “fold more potent than PCI34051 for HDAC8” value is “around ten”. Further, the “HDAC8 inhibitory activity compared with PCI34051” value on HDAC8 was “superior to PCI34051”.

For `COc1ccc(/C=C/C(=O)NO)c(-c2cnc3ccccc3c2)c1` [Compound 5h], the IC50 is 0.836 ± 0.0091 µM with HeLa nuclear HDACs; about 22700 µM in the series on MV4-11 cells [1] (MV4-11, 48-hr, Annexin V labeling); 16.6 µM in the series with MV4-11 cells [2] (MV4-11, 48-hr, luminescent cell viability assay); 7.17 µM with MOLM13 cells [3] (MOLM-13, 48-hr, luminescent cell viability assay); 90.9 µM in the series with MOLM13 cells [4] (MOLM-13, 48-hr, Annexin V labeling). The “IC50 PCI34051/IC50 compound” value against HDAC8 is listed as 0.63. Further, the “A (relative potency to PCI34051)” value at HDAC8 is given as 0.63.

For `COc1ccc(Cn2ccc3ccc(C(=O)NO)cc32)cc1` [PCI34051, reference compound], the “activation of p53 targets (Bax, Puma, p21, Gadd45b and LincRNA-p21)” value in series [5] is listed as “Variable levels of activation”. Further, the IC50 is over 0.01 µM in the series with H1299 cells, over 10 µM with HeLa nuclear HDACs, over 0.01 µM in the series with CL1-5 cells and over 0.01 µM with Cl1-1 cells. Besides, the “Ac-p53 level in CM-expressing cells” value in series [6] (Western blot, 6 h) is “remarkably increased Ac-p53”. Also, the “Ac-p53 level, in combination with Nutlin-3” value in [6] (compared to Nutlin-3 alone) is given as “enhanced Ac-p53 compared to Nutlin-3 alone”.

Take `COc1ccc(/C=C/C(=O)NO)c(-c2cccs2)c1` [Compound 5b]: the IC50 with HeLa nuclear HDACs was over 10 µM; with MV4-11 cells [1] (MV4-11, 48 h), 0.524 µM; in the series on MV4-11 cells [2] (MV4-11, 48 h) it was 0.0825 µM; in the series with OCI-AML3 cells it was 2.35 µM; in the series on MOLM13 cells [3] (MOLM-13, 48 h), 0.0533 µM; with MOLM13 cells [4] (MOLM-13, 48 h), 0.345 µM. Moreover, at HDAC8, the “IC50 PCI34051/IC50 compound” value was 1.43. For the same compound, the “A (relative potency to PCI34051)” value at HDAC8 was 1.43.
